Tested on: brainstem
Assay: Test of the effect of oral methylphenidate on evoked averaged brainstem response in a patient with ADHD
Type: in vivo, human
Description: To emphasize the importance of using the subject as its own reference when conducting herein described tests, FIG. 8a-c is showing a test of the effect of oral methylphenidate medication in a patient with ADHD. In this test each of the train of sound pulses will repeatedly present sound pulses to the patient for thirty seconds and for each sound pulse presented to the subject a corresponding response signal is recorded. The response signal for each set of train of sound pulses is then averaged to obtain an evoked averaged brainstem response.
In FIG. 8a, a measuring with only unmodified sound pulses, i.e. the sound stimuli comprising only one train being a train of unmodified sound pulses 72. Sound stimuli were presented twice to the subject (at t0+0 and t0+60 sec) and the corresponding response signals were recorded and evoked averaged brainstem responses were established 74a, 74b. This was done when the patient was not under influence of methylphenidate medication, i.e. baseline or control state. The measured variable is here an absolute value 70 measured in μV of the amplitude of peak III. […] Both times the corresponding response signals were recorded and evoked averaged brainstem responses were established 74c, 74d.
In FIG. 8b, a measuring with only modified sound pulses, i.e. the sound stimuli comprising only one train being a train of modified sound pulses 73. Sound stimuli were presented twice to the subject (at t0+0 and t0+60 sec) and the corresponding response signals were recorded and evoked averaged brainstem responses were established 75a, 75b. This was done when the patient was not under influence of methylphenidate medication, i.e. baseline or control state. The measured variable is here an absolute value 71 measured in NV of the amplitude of peak III. […] Both times the corresponding response signals were recorded and evoked averaged brainstem responses were established 75c, 75d. […]

With `COC(=O)C(c1ccccc1)C1CCCCN1` (stereo not drawn) [methylphenidate] the “methylphenidate effect on amplitude of peak III (absolute value), only modified sound pulses” value (single train of modified sound pulses, t1+0 and t1+60 sec vs drug-free baseline, FIG. 8b) was “no detectable methylphenidate effect could be established”, the “methylphenidate effect on amplitude of peak III (absolute value), only unmodified sound pulses” value (single train of unmodified sound pulses, t1+0 and t1+60 sec vs drug-free baseline, FIG. 8a) was “no detectable methylphenidate effect could be established” and the “methylphenidate effect on relative measure (modified train averaged evoked brainstem response as a percentage of the unmodified average evoked response)” value (unmodified train followed by modified train, compared at t1+60 sec and t1+120 sec vs drug-free baseline, FIG. 8c) was “detectable methylphenidate effect could be seen”.

Source: US10575752B2, “System and method for determination of a brainstem response state development” (SensoDetect AB, priority 2010, dated 2020)
